Results on 1 substance are retold here after patent publication US20220091133A1, “METHODS AND ASSAYS FOR IMMUNE PHENOTYPING” (Washington University, priority 2020, published 2022).

For assay [1], the system named is T cells (IFN-γ production). The assay is described as follows: IFN-γ ELISPOT on patient PBMCs before and during IL-7 therapy (Example 3). As to conditions: anti-CD3/anti-CD28 ex vivo stimulation, before vs during IL-7 therapy. It is filed as in vivo, human. The method, then: The effect of IL-7 in terms of improving the patient's T cell function was evaluated by an ex vivo stimulation assay using anti-CD3 and anti-CD28 antibodies (BioLegend, San Diego, Calif., USA) on an IFN-γ ELISPOT assay (Cellular Technologies Limited, Shaker Heights, Ohio, USA), which was performed as previously described.

Assay [2] relates to PBMCs (T cell IFN-γ production). The assay is described as follows: PBMC ELISpot, CD3/CD28-stimulated IFN-γ production (Example 2). It is filed as cell-based, human. The method, then:
Fresh whole blood samples were processed within 90 min of collection as previously described (28). Briefly, blood was diluted in an equal volume of PBS and layered carefully on Ficoll Paque PLUS (GE Healthcare). The PBMC fraction was isolated following centrifugation at 500×g for 30 min at room temperature. The number of total PBMCs was determined with a Vi-CELL Viability Analyzer (Beckman Coulter, Brea, Calif.). Flow cytometry was performed on PBMC fraction for cell typing.
Innate and adaptive immune function was assessed using ELISpot analysis by measurement of the production of IFN-γ and TNF-α in ex vivo-stimulated cells following overnight culture. […] PBMCs were plated into wells in quantities of 2.5×10^4 cells per well for IFN-γ and 2.5×10^3 cells per well for TNF-α. […]
Samples were scanned, analyzed, and quality controlled for spot count, spot area, and TWI using a Cellular Technology series 6 ImmunoSpot Universal Analyzer with ImmunoSpot 7.0 professional software (Cellular Technology Analyzers, Shaker Heights, Ohio). […]
The number of cytokine-secreting cells present in each ELISpot well is referred to as spot-forming units (SFU) and is reported in two distinct ways. […] The number of lymphocytes in each well was determined based upon the absolute lymphocyte count as measured by the patients' complete blood count. […]

Assay [3] concerns SARS-CoV-2.
For assay [4], the system named is PBMCs (T cell IFN-γ production). The assay is described as follows: ELISpot, CD3/CD28-stimulated IFN-γ in patient PBMCs before and after IL-7 therapy (Example 5). It is filed as in vivo, human. As to conditions: concomitant with initiation of IL-7 treatment.
In assay [5] the test system is PBMCs (TNF-α-producing cells). The assay is described as follows: ELISpot, lipopolysaccharide-stimulated TNF-α in patient PBMCs before and after IL-7 therapy (Example 5). The format is in vivo, human. Conditions: concomitant with initiation of IL-7 treatment.
Assay [6] has as its system PBMCs (T cell IFN-γ production). Conditions: critically ill COVID 19 disease patients, reference 18; cited from earlier work.

“IL-7: recombinant human IL-7, immunoadjuvant and potent T cell activator; R&D Systems ex vivo, RevImmune for patients”: the “increase in the proportion of activated, IFN-γ-producing T cells from baseline” value in assay [1] is recorded as 1.4 fold. For the same substance, in assay [2] (PBMC, healthy subjects and CINS patients), the “effect of IL-7 on IFN-γ SFUs” value was “significantly increased”. The “effect of IL-7 on T cell IFN-γ production” value in assay [2] (PBMCs, septic patients, p<0.0001) is “restore T cell IFN-γ production”. Moreover, the “increase of absolute lymphocyte count (ALC)” value in assay [3] (COVID-19 patient after IL-7) is approximately 10 fold. Besides, the “discharged home, day of hospitalization” value in assay [3] (after IL-7 therapy) was determined as 24 days. Moreover, the “mechanical ventilation discontinued, day after ICU admission” value in assay [3] (after initiation of IL-7 therapy) worked out at 15 days. In assay [4], the “increase in the number of IFN-γ-producing T cells” value is “multifold increases”. The “increase in the number of TNF-α-producing cells” value in assay [5] is given as “multifold increases”. In addition, in assay [6], the “lymphocyte IFN-γ production on ex vivo addition of IL-7 to PBMCs” value is “doubled”.
